{
  "source": "patent EP0519971B1",
  "about": "“NOVEL […] ACTIVE COMPOUNDS WHICH CAN BE FORMED FROM 1,3,4,6,7,8-HEXAHYDRO-2H-PYRIMIDO-(1,2-a)-PYRIMIDINE” (priority 1990, dated 1991)",
  "data": [
    {"test": "Solubility in water of TBD salts (crude samples)", "format": "physicochemical", "settings": "not given", "method": "Solubilities were determined with the crude samples and indicate the volume of water sufficient to dissolve one gram of the salt.", "units": {"Solubility in water": "g/100ml"}, "values": [
      {"molecule": "C1CN=C2NCCCN2C1.O=C(O)c1ccc(Cl)c([N+](=O)[O-])c1", "note": "[Example 12, TBD 4-chloro-3-nitrobenzoate]", "Solubility in water": "≥ 40"},
      {"molecule": "C1CN=C2NCCCN2C1.O=C(O)c1ccc([N+](=O)[O-])c(O)c1", "note": "[Example 14, TBD 3-hydroxy-4-nitrobenzoate]", "Solubility in water": "≥ 30"},
      {"molecule": "C1CN=C2NCCCN2C1.O=C(O)c1ccc(Cl)cc1[N+](=O)[O-]", "note": "[Example 8, TBD 4-chloro-2-nitrobenzoate]", "Solubility in water": "≥ 10"},
      {"molecule": "TBD 5-amino-5-hydroxybenzoate [Example 16]", "Solubility in water": "≥ 10"},
      {"molecule": "C1CN=C2NCCCN2C1.O=C(O)c1cc(Cl)ccc1[N+](=O)[O-]", "note": "[Example 11, TBD 5-chloro-2-nitrobenzoate]", "Solubility in water": "≥ 40"},
      {"molecule": "C1CN=C2NCCCN2C1.O=C(O)Cc1ccc([N+](=O)[O-])cc1[N+](=O)[O-]", "note": "[Example 10, TBD 2,4-dinitrophenylacetate]", "Solubility in water": "≥ 30"},
      {"molecule": "C1CN=C2NCCCN2C1.O=C(O)Cc1ccc([N+](=O)[O-])cc1", "note": "[Example 9, TBD 4-nitrophenylacetate]", "Solubility in water": "≥ 20"},
      {"molecule": "C1CN=C2NCCCN2C1.O=C(O)c1ccccc1I", "note": "[Example 15, TBD 2-iodobenzoate]", "Solubility in water": "≥ 10"},
      {"molecule": "C1CN=C2NCCCN2C1.O=C(O)c1cc([N+](=O)[O-])ccc1O", "note": "[Example 13, TBD 5-nitrosalicylate (2-hydroxy-5-nitrobenzoate)]", "Solubility in water": "≥ 160"},
      {"molecule": "C1CN=C2NCCCN2C1.C1CN=C2NCCCN2C1.O=C(O)c1cc(C(=O)O)cc([N+](=O)[O-])c1", "note": "[Example 17, TBD 5-nitroisophthalate (5-nitrobenzene-1,3-dicarboxylic acid bis TBD salt)]", "Solubility in water": "≥ 30"}
    ]},
    {"test": "not given", "settings": "pH 6.5", "units": {"Solubility in distilled water": "mg/mL"}, "values": [
      {"molecule": "C1CN=C2NCCCN2C1.O=C(O)c1cc2ccccc2[nH]1", "note": "[Example 2, salt of 1,5,7-triazabicyclo-[4.4.7]dec-5-ene (TBD, HHPP) with indole-2-carboxylic acid]", "Solubility in distilled water": 70}
    ]},
    {"test": "not given", "settings": "solution in water", "values": [
      {"molecule": "C1CN=C2NCCCN2C1.O=C(O)c1cc2ccccc2[nH]1", "note": "[Example 2, salt of 1,5,7-triazabicyclo-[4.4.7]dec-5-ene (TBD, HHPP) with indole-2-carboxylic acid]", "pH of solution": 6.5}
    ]}
  ]
}
